Reference: patent US11789029B2, “Temporal traumatic brain injury biomarkers and methods of use thereof” (ARIZONA BOARD OF REGENTS ON BEHALF OF ARIZONA STATE …, priority 2019, dated 2023)
Entries after “also recorded” stand apart in the source; their conditions may differ. Blank lines part the entries; values can stand above or below the sequence they belong to. No end group written: not given here. bromoacetamide scaffold = not defined here

Key:
CCI injury sections = assay: Immunohistochemistry of biotinylated HCDR3 constructs on CCI injury sections; format: binding, mice; conditions: for bioreactivity of control HCDR3 constructs on injured neural tissue: injured tissue at 1 or 7 days post-injury; for bioreactivity of chronic injury targeting HCDR3 constructs: 21 dpi tissue sections, 5 μM construct, Triton-X permeabilization
Description: Mice were subject to CCI or sham (n=3 per group/sex) as described previously and perfused with 0.1 M phosphate buffer and 4% paraformaldehyde at specified timepoints. Brains were fixed overnight in 4% paraformaldehyde at 4° C. followed by immersion in 15% sucrose and then 30% sucrose. Brains were flash frozen on dry ice in optimal cutting temperature medium and stored at −80° C. Samples were sectioned coronally at 20 μm thickness.
Tissue sections were incubated with excess streptavidin and biotin to block endogenous biotin using an Endogenous Biotin blocking kit (Thermo Fisher Scientific). After permeabilization with either 0.2% Triton-X 100 or Tween-20, 5 μM of biotinylated HCDR3-construct was incubated on tissue overnight at 4° C. Simultaneously, sections that served as controls were incubated with control HCDR3-construct or 1×PBS. Tissue sections were washed in 1×PBS and incubated with Alexa Fluor 555 streptavidin at room temperature for 2 hours, followed by 1×PBS washes and DAPI incubation for 5 minutes. Slides were imaged using fluorescence microscopy with Leica software.
For NGS analysis, raw counts were first normalized to reads per million (RPM) to account for library differences. A normalized z-score was then used as a threshold to identify dAbs that were highly represented and specific to their distinct injury timepoint. Selected dAbs were then screened for enrichment factor and individual frequency. Fluorescence percentage per area was conducted with ordinary one way ANOVA followed by Dunnett's test for multiple comparisons. Statistical significance was determined as p<0.05. Identified proteins that met the false discovery rate (FDR) threshold of <0.01 were used in all ontological assessments to categorize biological processes and candidate pathways.

[1] = molecular target: T1, Succinate--CoA ligase [ADP-forming] subunit beta, mitochondrial (Mus musculus, UniProt Q9Z2I9); assay: Immunoprecipitation-mass spectrometry, candidate protein; format: binding
T1 construct: The ipsilateral hemisphere of the brain was immediately dissected and homogenized in chilled lysis buffer; from tissue; host or cells: ipsilateral brain hemisphere lysate of CCI or sham mice
T1 sequence (Q9Z2I9 54-463): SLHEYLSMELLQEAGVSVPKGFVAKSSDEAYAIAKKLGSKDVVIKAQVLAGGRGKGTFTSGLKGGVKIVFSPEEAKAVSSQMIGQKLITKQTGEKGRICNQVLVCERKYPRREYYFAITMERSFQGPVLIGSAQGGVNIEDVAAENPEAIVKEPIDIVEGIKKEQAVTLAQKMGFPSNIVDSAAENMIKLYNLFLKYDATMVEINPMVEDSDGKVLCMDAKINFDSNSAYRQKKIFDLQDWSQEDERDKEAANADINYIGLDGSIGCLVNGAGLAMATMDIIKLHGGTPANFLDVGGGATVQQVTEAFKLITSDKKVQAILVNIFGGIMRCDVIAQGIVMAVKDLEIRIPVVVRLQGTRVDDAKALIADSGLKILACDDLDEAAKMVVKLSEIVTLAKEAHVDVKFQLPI
T1 sequence (Q9WUM5 35-346 partner): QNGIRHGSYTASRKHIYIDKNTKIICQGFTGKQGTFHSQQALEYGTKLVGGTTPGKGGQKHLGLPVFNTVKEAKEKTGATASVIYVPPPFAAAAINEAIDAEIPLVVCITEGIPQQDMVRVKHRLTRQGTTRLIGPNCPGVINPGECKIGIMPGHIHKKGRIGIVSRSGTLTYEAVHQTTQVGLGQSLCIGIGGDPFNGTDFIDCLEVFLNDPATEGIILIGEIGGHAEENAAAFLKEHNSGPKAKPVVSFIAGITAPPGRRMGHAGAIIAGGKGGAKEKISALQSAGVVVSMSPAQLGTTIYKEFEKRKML
Excerpt: (§1) CCI and sham surgeries were completed as described previously. Mice were sacrificed at 1 d, 7 d, or 21 d post-injury (n=3/group) via transcardial perfusion with phosphate buffer, pH 7.4. The ipsilateral hemisphere of the brain was immediately dissected and homogenized in chilled lysis buffer (1×PBS, 1% Triton, protease inhibitor cocktail). Protein concentration of the homogenates was quantified with the Pierce BCA Protein Assay Kit (Thermo Fisher).
(§2) Streptavidin-coupled Dynabeads (Thermo Fisher) were washed with 1×PBST with 0.1% Tween and incubated with 1 mg/mL tissue lysate for 1 hour at room temperature. Pre-cleared lysate was collected after separation from magnetic beads and incubated with 450 pmol of HCDR3-construct rotating overnight at 4° C. to form the immune complex. The immune complex was then incubated with Streptavidin-coupled Dynabeads for 1 hour at room temperature before antigen was eluted from beads by heating sample at 95° C. with SDS PAGE running buffer. Samples were run on a pre-cast 12% SDS-PAGE gel (Bio-Rad) and bands were excised. Gel bands were processed by ASU Biodesign Mass Spectrometry Facility for digestion and protein identification with the Thermo Orbitrap Fusion Lumos (Thermo Fisher).
(§3) UniProt IDs of identified proteins were uploaded to the PANTHER classification system and searched against the Mus musculus reference database. Ontological assessments to characterize cellular localization, molecular function, biological processes, and pathways were conducted with PANTHER Overrepresentation test (Fisher's Exact test, p<0.05 using Benjamini Hochberg False Discovery Rate correction) with the GO Ontology database (released 2019-10-08).

[2] = molecular target: T2, citrate synthase, mitochondrial (Mus musculus, UniProt Q9CZU6); assay: as above; format: binding
T2 construct: The ipsilateral hemisphere of the brain was immediately dissected and homogenized in chilled lysis buffer; from tissue; host or cells: ipsilateral brain hemisphere lysate of CCI or sham mice
T2 sequence (Q9CZU6 28-464): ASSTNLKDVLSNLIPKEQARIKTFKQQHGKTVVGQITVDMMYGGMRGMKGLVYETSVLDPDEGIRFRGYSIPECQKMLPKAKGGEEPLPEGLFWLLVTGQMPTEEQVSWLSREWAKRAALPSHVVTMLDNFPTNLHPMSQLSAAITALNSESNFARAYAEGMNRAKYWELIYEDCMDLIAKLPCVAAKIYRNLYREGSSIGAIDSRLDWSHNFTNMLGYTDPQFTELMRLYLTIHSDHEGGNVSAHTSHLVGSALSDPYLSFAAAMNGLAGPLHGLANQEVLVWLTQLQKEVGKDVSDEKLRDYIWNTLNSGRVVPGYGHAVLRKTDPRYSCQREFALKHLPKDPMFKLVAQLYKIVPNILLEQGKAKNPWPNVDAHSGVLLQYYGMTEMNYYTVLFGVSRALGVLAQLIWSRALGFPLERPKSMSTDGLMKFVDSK
Excerpt: as §1, §2, §3

tissue lysates = assay: Immunoprecipitation-mass spectrometry with HCDR3 constructs as capture antibodies; format: binding, Mus musculus; conditions: A2 with 1 dpi tissue lysates, SA1 with 7 dpi tissue lysates
Excerpt: as §1, §2
UniProt IDs of identified proteins were uploaded to the PANTHER classification system and searched against the Mus musculus reference database. […]

[3] = molecular target: T3, Heat shock cognate 71 kDa protein (Mus musculus, UniProt P63017); assay: Immunoprecipitation-mass spectrometry, candidate protein; format: binding
T3 construct: The ipsilateral hemisphere of the brain was immediately dissected and homogenized in chilled lysis buffer; from tissue; host or cells: ipsilateral brain hemisphere lysate of CCI or sham mice
T3 sequence (P63017 whole entry): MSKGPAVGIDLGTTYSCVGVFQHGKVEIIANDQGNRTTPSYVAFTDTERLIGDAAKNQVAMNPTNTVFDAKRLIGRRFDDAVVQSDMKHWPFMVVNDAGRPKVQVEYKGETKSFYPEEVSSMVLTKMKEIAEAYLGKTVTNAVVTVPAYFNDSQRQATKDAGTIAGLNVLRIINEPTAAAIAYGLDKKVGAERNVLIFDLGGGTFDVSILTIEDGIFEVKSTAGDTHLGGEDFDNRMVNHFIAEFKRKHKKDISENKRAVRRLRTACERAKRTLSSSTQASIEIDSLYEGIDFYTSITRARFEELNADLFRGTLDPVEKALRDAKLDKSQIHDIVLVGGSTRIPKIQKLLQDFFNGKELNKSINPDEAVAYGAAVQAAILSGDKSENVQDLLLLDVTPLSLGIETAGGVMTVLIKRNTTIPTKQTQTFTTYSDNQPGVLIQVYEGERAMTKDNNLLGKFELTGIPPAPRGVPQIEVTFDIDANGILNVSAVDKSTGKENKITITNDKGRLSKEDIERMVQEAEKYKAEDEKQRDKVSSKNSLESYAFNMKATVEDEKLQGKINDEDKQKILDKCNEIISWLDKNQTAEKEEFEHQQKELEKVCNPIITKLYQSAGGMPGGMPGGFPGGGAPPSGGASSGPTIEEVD
Excerpt: as §1, §2, §3

[4] = molecular target: T4, Endoplasmic reticulum chaperone BiP (Mus musculus, UniProt P20029); assay: as above; format: binding
T4 construct: The ipsilateral hemisphere of the brain was immediately dissected and homogenized in chilled lysis buffer; from tissue; host or cells: ipsilateral brain hemisphere lysate of CCI or sham mice
T4 sequence (P20029 20-655): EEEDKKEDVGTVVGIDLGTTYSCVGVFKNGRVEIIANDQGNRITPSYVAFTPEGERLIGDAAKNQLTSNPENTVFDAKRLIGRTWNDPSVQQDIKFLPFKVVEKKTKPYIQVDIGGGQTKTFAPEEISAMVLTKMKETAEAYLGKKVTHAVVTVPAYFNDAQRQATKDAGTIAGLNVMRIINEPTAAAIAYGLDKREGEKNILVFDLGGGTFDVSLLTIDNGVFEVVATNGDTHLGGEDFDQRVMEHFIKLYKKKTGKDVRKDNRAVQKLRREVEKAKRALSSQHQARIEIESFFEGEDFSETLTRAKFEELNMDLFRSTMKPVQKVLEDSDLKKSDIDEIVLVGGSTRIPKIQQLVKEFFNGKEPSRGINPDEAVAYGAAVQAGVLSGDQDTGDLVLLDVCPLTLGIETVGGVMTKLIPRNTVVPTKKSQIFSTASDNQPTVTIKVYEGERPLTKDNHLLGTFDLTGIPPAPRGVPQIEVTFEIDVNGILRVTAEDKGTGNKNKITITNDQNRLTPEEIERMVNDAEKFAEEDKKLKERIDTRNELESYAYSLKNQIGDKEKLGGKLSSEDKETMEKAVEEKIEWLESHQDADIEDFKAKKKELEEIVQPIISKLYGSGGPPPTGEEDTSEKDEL
Excerpt: as §1, §2, §3

Sequence: TAERDARTFQY (linker (positions not given here) via bromoacetamide scaffold; not fully specified; reading uncertain; also: cyclized on bromoacetamide scaffold with biotin, sites not given here) [A1, 1, acute stage; peptide cyclized on bromoacetamide scaffold containing biotin]
IHC signal on injured tissue (CCI injury sections; fixed mouse brain tissue at 1 dpi): no detectable signal; also recorded: did not show detectable bioreactivity

Sequence: GPLDGKEEELRF [SP-CDR3, reference compound]
bioreactivity of control HCDR3 constructs on injured neural tissue (CCI injury sections): no detectable bioreactivity

# Peptides [1]: 4
# Peptides [2]: 3
Sequence: SLYGSSRHTAPISF (linker (positions not given here) via bromoacetamide scaffold; not fully specified; reading uncertain; also: cyclized on bromoacetamide scaffold with biotin, sites not given here) [A2, 2, acute stage; peptide cyclized on bromoacetamide scaffold containing biotin]
sensitivity and affinity to the peri-injury region (CCI injury sections; 1 day post-injury compared to sham, subacute, and chronic tissue sections): high sensitivity and affinity
bioreactivity determined by the fluorescence on 1 dpi tissue (CCI injury sections; in comparison to sham (p=0.0120) and 7 days post-injury tissue (p=0.0221)): significant bioreactivity
bioreactivity, 1 days post-injury versus 21 days post injury tissue (CCI injury sections; p=0.0658): No significant differences
immunoprecipitation eluate separated by SDS-PAGE (tissue lysates): isolated proteins unique to the injury condition

Sequence: GGDTFRDASQSMHF [dAb-CDR3, reference compound]
bioreactivity of control HCDR3 constructs on injured neural tissue (CCI injury sections): no detectable bioreactivity

Sequence: RLVRESSQEHTLSS [CH1, 5, chronic injury]
bioreactivity of chronic injury targeting HCDR3 constructs (CCI injury sections): negligible bioreactivity

Sequence: TDCQETPYELKS [CH2, 6, chronic injury]
bioreactivity of chronic injury targeting HCDR3 constructs (CCI injury sections): non-specific staining

# Peptides [3]: 6
# Peptides [4]: 6
Sequence: TDLAVAHPVRY (linker (positions not given here) via bromoacetamide scaffold; not fully specified; reading uncertain; also: cyclized on bromoacetamide scaffold with biotin, sites not given here) [SA1, 3, subacute stage; peptide cyclized on bromoacetamide scaffold containing biotin]
stain in the peri-injury region of injured tissue (CCI injury sections; 7 days post-injury tissue): Positive stain; also recorded: positively binding
bioreactivity, 7 days post-injury versus 1 days post-injury or 21 days post-injury tissue (CCI injury sections; p=0.0993 (1 dpi), p=0.0780 (21 dpi)): No significant differences
localization of stain in sham brain sections (CCI injury sections; sham brain sections, p=0.0079 versus 7 days post-injury): not observed
immunoprecipitation eluate separated by SDS-PAGE (tissue lysates): isolated proteins unique to the injury condition

Sequence: TGHEGENEMAS [HE-CDR3, reference compound]
bioreactivity of control HCDR3 constructs on injured neural tissue (CCI injury sections): no detectable bioreactivity
